Laboratory results reported in ChEMBL document CHEMBL1146694, “Novel targeting strategy based on multimeric ligands for drug delivery and molecular imaging: homooligomers of alpha-MSH” (Bioorg Med Chem Lett, 2004).

Key:
Melanocortin receptor 4 = Melanocortin receptor 4 (Homo sapiens, UniProt P32245); test: Binding affinity towards human melanocortin 4 receptor was determined using [125I]-NDP-alpha-MSH as radioligand transfected in HEK293 human embryonic kidney cells; type: cell-based; conditions: read-out: EC50
[1] = Hill coefficient was determined; type: ADME

Melanocortin receptor 4, sequence (P32245 whole entry): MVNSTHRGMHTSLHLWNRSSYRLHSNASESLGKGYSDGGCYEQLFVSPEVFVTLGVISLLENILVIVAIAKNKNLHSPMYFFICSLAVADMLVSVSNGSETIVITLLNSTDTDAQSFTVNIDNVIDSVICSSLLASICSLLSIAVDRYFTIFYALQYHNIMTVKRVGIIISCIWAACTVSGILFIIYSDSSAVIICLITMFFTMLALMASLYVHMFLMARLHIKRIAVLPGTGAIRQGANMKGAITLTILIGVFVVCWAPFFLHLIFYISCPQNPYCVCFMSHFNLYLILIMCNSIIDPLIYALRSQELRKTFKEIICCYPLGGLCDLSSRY

| binding affinity (radioligand displacement) (Melanocortin receptor 4) [nM] | Hill coefficient [1] | binding affinity (radioligand displacement) (Melanocortin receptor 4; hek293) [nM] | Structure (SMILES) |
| --- | --- | --- | --- |
| 571 | 0.88 | – | CC(=O)N[C@@H](Cc1c[nH]cn1)C(=O)N[C@H](Cc1ccccc1)C(=O)N[C@@H](CCCN=C(N)N)C(=O)N[C@@H](Cc1c[nH]c2ccccc12)C(=O)NCCC(=O)NCC(=O)NCCC(=O)NCC(=O)NCCC(=O)NCC(=O)NCCC(=O)N[C@@H](Cc1c[nH]cn1)C(=O)N[C@H](Cc1ccccc1)C(=O)N[C@@H](CCCN=C(N)N)C(=O)N[C@@H](Cc1c[nH]c2ccccc12)C(N)=O |
| 123 | 1.12 | – | CC(=O)N[C@@H](Cc1c[nH]cn1)C(=O)N[C@H](Cc1ccccc1)C(=O)N[C@@H](CCCN=C(N)N)C(=O)N[C@@H](Cc1c[nH]c2ccccc12)C(=O)Nc1ccc(C(=O)Nc2ccc(C(=O)N[C@@H](Cc3c[nH]cn3)C(=O)N[C@H](Cc3ccccc3)C(=O)N[C@@H](CCCN=C(N)N)C(=O)N[C@@H](Cc3c[nH]c4ccccc34)C(N)=O)cc2)cc1 |
| 14 | 0.84 | – | CC(=O)N[C@@H](Cc1c[nH]cn1)C(=O)N[C@H](Cc1ccccc1)C(=O)N[C@@H](CCCN=C(N)N)C(=O)N[C@@H](Cc1c[nH]c2ccccc12)C(=O)N1CCC[C@H]1C(=O)NCC(=O)N1CCC[C@H]1C(=O)N[C@@H](Cc1c[nH]cn1)C(=O)N[C@H](Cc1ccccc1)C(=O)N[C@@H](CCCN=C(N)N)C(=O)N[C@@H](Cc1c[nH]c2ccccc12)C(N)=O |
| 38 | 1.05 | – | CC(=O)N[C@@H](Cc1c[nH]cn1)C(=O)N[C@H](Cc1ccccc1)C(=O)N[C@@H](CCCN=C(N)N)C(=O)N[C@@H](Cc1c[nH]c2ccccc12)C(=O)Nc1ccc(C(=O)N[C@@H](Cc2c[nH]cn2)C(=O)N[C@H](Cc2ccccc2)C(=O)N[C@@H](CCCN=C(N)N)C(=O)N[C@@H](Cc2c[nH]c3ccccc23)C(N)=O)cc1 |
| 264 | 0.9 | – | CC(=O)N[C@@H](Cc1c[nH]cn1)C(=O)N[C@H](Cc1ccccc1)C(=O)N[C@@H](CCCN=C(N)N)C(=O)N[C@@H](Cc1c[nH]c2ccccc12)C(=O)N[C@@H](Cc1c[nH]cn1)C(=O)N[C@H](Cc1ccccc1)C(=O)N[C@@H](CCCN=C(N)N)C(=O)N[C@@H](Cc1c[nH]c2ccccc12)C(N)=O |
| 231 | 1.09 | – | CC(=O)N[C@@H](Cc1c[nH]cn1)C(=O)N[C@H](Cc1ccccc1)C(=O)N[C@@H](CCCN=C(N)N)C(=O)N[C@@H](Cc1c[nH]c2ccccc12)C(=O)NCCC(=O)NCC(=O)NCCC(=O)NCC(=O)NCCC(=O)N[C@@H](Cc1c[nH]cn1)C(=O)N[C@H](Cc1ccccc1)C(=O)N[C@@H](CCCN=C(N)N)C(=O)N[C@@H](Cc1c[nH]c2ccccc12)C(N)=O |
| 7 | 0.91 | – | CCCC[C@H](NC(C)=O)C(=O)N[C@@H](CCC(=O)O)C(=O)N[C@@H](Cc1cnc[nH]1)C(=O)N[C@H](Cc1ccccc1)C(=O)N[C@@H](CCCNC(=N)N)C(=O)N[C@@H](Cc1c[nH]c2ccccc12)C(=O)NCCC(=O)NCC(=O)NCCC(=O)N[C@@H](CCCC)C(=O)N[C@@H](CCC(=O)O)C(=O)N[C@@H](Cc1cnc[nH]1)C(=O)N[C@H](Cc1ccccc1)C(=O)N[C@@H](CCCNC(=N)N)C(=O)N[C@@H](Cc1c[nH]c2ccccc12)C(N)=O |
| 143 | 0.99 | – | CC(=O)N[C@@H](Cc1cnc[nH]1)C(=O)N[C@H](Cc1ccccc1)C(=O)N[C@@H](CCCNC(=N)N)C(=O)N[C@@H](Cc1c[nH]c2ccccc12)C(=O)NCCC(=O)NCC(=O)NCCC(=O)N[C@@H](Cc1cnc[nH]1)C(=O)N[C@H](Cc1ccccc1)C(=O)N[C@@H](CCCNC(=N)N)C(=O)N[C@@H](Cc1c[nH]c2ccccc12)C(N)=O |
| 119 | 1.39 | – | CC(=O)N[C@@H](Cc1c[nH]cn1)C(=O)N[C@H](Cc1ccccc1)C(=O)N[C@@H](CCCN=C(N)N)C(=O)N[C@@H](Cc1c[nH]c2ccccc12)C(=O)NCCC(=O)N[C@@H](Cc1c[nH]cn1)C(=O)N[C@H](Cc1ccccc1)C(=O)N[C@@H](CCCN=C(N)N)C(=O)N[C@@H](Cc1c[nH]c2ccccc12)C(N)=O |
| 234 | 1.1 | – | CC(=O)N[C@@H](Cc1c[nH]cn1)C(=O)N[C@H](Cc1ccccc1)C(=O)N[C@@H](CCCN=C(N)N)C(=O)N[C@@H](Cc1c[nH]c2ccccc12)C(=O)NCCOCCOCCNC(=O)CCC(=O)N[C@@H](Cc1c[nH]cn1)C(=O)N[C@H](Cc1ccccc1)C(=O)N[C@@H](CCCN=C(N)N)C(=O)N[C@@H](Cc1c[nH]c2ccccc12)C(N)=O |
| 164 | 1.05 | – | CC(=O)N[C@@H](Cc1cnc[nH]1)C(=O)N[C@H](Cc1ccccc1)C(=O)N[C@@H](CCCNC(=N)N)C(=O)N[C@@H](Cc1c[nH]c2ccccc12)C(=O)Nc1ccc(C(=O)Nc2ccc(C(=O)Nc3ccc(C(=O)N[C@@H](Cc4cnc[nH]4)C(=O)N[C@H](Cc4ccccc4)C(=O)N[C@@H](CCCNC(=N)N)C(=O)N[C@@H](Cc4c[nH]c5ccccc45)C(N)=O)cc3)cc2)cc1 |
| 9 | 1.23 | – | CCCC[C@H](NC(C)=O)C(=O)N[C@@H](CCC(=O)O)C(=O)N[C@@H](Cc1c[nH]cn1)C(=O)N[C@H](Cc1ccccc1)C(=O)N[C@@H](CCCN=C(N)N)C(=O)N[C@@H](Cc1c[nH]c2ccccc12)C(=O)NCCOCCOCCNC(=O)CCC(=O)N[C@@H](CCCC)C(=O)N[C@@H](CCC(=O)O)C(=O)N[C@@H](Cc1c[nH]cn1)C(=O)N[C@H](Cc1ccccc1)C(=O)N[C@@H](CCCN=C(N)N)C(=O)N[C@@H](Cc1c[nH]c2ccccc12)C(N)=O |
| – | 1.56 | 24 | CC(=O)N[C@@H](Cc1c[nH]cn1)C(=O)N[C@H](Cc1ccccc1)C(=O)N[C@@H](CCCN=C(N)N)C(=O)N[C@@H](Cc1c[nH]c2ccccc12)C(=O)NCCCC[C@H](NC(=O)CCNC(=O)CNC(=O)CCNC(=O)[C@H](Cc1c[nH]c2ccccc12)NC(=O)[C@H](CCCN=C(N)N)NC(=O)[C@@H](Cc1ccccc1)NC(=O)[C@H](Cc1c[nH]cn1)NC(C)=O)C(=O)NCCC(=O)NCC(=O)NCCC(=O)N[C@@H](Cc1c[nH]cn1)C(=O)N[C@H](Cc1ccccc1)C(=O)N[C@@H](CCCN=C(N)N)C(=O)N[C@@H](Cc1c[nH]c2ccccc12)C(N)=O |
| – | 0.97 | 122 | CCCC[C@H](NC(C)=O)C(=O)N[C@@H](CCC(=O)O)C(=O)N[C@@H](Cc1cnc[nH]1)C(=O)N[C@H](Cc1ccccc1)C(=O)N[C@@H](CCCNC(=N)N)C(=O)N[C@@H](Cc1c[nH]c2ccccc12)C(=O)NCCCOCCOCCOCCCNC(=O)CCC(=O)NCCCOCCOCCOCCCNC(=O)CCC(=O)N[C@@H](CCCC)C(=O)N[C@@H](CCC(=O)O)C(=O)N[C@@H](Cc1cnc[nH]1)C(=O)N[C@H](Cc1ccccc1)C(=O)N[C@@H](CCCNC(=N)N)C(=O)N[C@@H](Cc1c[nH]c2ccccc12)C(N)=O |
| – | 1.13 | 15 | CC(=O)N[C@@H](Cc1c[nH]cn1)C(=O)N[C@H](Cc1ccccc1)C(=O)N[C@@H](CCCN=C(N)N)C(=O)N[C@@H](Cc1c[nH]c2ccccc12)C(=O)NCCCC[C@H](NC(=O)CCNC(=O)[C@H](Cc1c[nH]c2ccccc12)NC(=O)[C@H](CCCN=C(N)N)NC(=O)[C@@H](Cc1ccccc1)NC(=O)[C@H](Cc1c[nH]cn1)NC(C)=O)C(=O)NCCC(=O)N[C@@H](Cc1c[nH]cn1)C(=O)N[C@H](Cc1ccccc1)C(=O)N[C@@H](CCCN=C(N)N)C(=O)N[C@@H](Cc1c[nH]c2ccccc12)C(N)=O |
| – | 1.83 | 662 | CC(=O)N[C@@H](Cc1c[nH]cn1)C(=O)N[C@H](Cc1ccccc1)C(=O)N[C@@H](CCCN=C(N)N)C(=O)N[C@@H](Cc1c[nH]c2ccccc12)C(=O)NCCCOCCOCCOCCCNC(=O)CCC(=O)N[C@@H](Cc1c[nH]cn1)C(=O)N[C@H](Cc1ccccc1)C(=O)N[C@@H](CCCN=C(N)N)C(=O)N[C@@H](Cc1c[nH]c2ccccc12)C(N)=O |
| – | 1.59 | 33 | CCCC[C@H](NC(C)=O)C(=O)N[C@@H](CCC(=O)O)C(=O)N[C@@H](Cc1c[nH]cn1)C(=O)N[C@H](Cc1ccccc1)C(=O)N[C@@H](CCCN=C(N)N)C(=O)N[C@@H](Cc1c[nH]c2ccccc12)C(=O)NCCCOCCOCCOCCCNC(=O)CCC(=O)N[C@@H](CCCC)C(=O)N[C@@H](CCC(=O)O)C(=O)N[C@@H](Cc1c[nH]cn1)C(=O)N[C@H](Cc1ccccc1)C(=O)N[C@@H](CCCN=C(N)N)C(=O)N[C@@H](Cc1c[nH]c2ccccc12)C(N)=O |
